Measured values from ChEMBL document CHEMBL1129515, “Synthesis and biological evaluation of1',2'-seconucleo-5'- phosphonates” (1996).

What was measured:
[1] = tested on: unidentified adenovirus; assay: Inhibitory activity of compound against Adenovirus type 2 (AD2) was evaluated in vitro; Inactive; assay type: functional
[2] = tested on: Human immunodeficiency virus; assay: Inhibitory activity of compound against human immunodeficiency virus (HIV) was evaluated in vitro; Inactive; assay type: functional, Human immunodeficiency virus 1
[3] = tested on: Pichinde virus; assay: Inhibitory activity of compound against pichinde virus (PIC) was evaluated in vitro; Inactive; assay type: functional
[4] = tested on: Punta Toro virus; assay: Inhibitory activity of compound against punto toro virus (PT) was evaluated in vitro; Inactive; assay type: functional
[5] = tested on: Rift Valley fever virus; assay: (§1) Inhibitory activity of compound against […] was evaluated in vitro; Inactive; assay type: functional
[6] = tested on: Sandfly fever Sicilian virus; assay: as §1; assay type: functional
[7] = tested on: Vesicular stomatitis virus; assay: Inhibitory activity of compound against Vesicular stomatitis virus (VSV) was evaluated in vitro; Inactive; assay type: functional
[8] = tested on: Yellow fever virus; assay: Inhibitory activity of compound against Yellow fever virus (YF) was evaluated in vitro; Inactive; assay type: functional
[9] = tested on: Venezuelan equine encephalitis virus; assay: Inhibitory activity of compound against Venezuelan equine encephalomyelitis virus (VEE) was evaluated in vitro; Inactive; assay type: functional
[10] = tested on: Japanese encephalitis virus; assay: Inhibitory activity of compound against japanese encephalitis virus (JBE) was evaluated in vitro; Inactive; assay type: functional

Measured: Dose

CC(O)C(CP(=O)(O)O)OCn1ccc(=O)[nH]c1=O (stereo not given)
320 µg/mL: [1] | [2] | [3] | [4] | [5] | [6] | [7] | [8] | [9] | [10]

CCOP(=O)(C[C@H](O)[C@H](C)OCc1ccccc1)OCC
320 µg/mL: [1] | [2] | [3] | [4] | [5] | [6] | [7] | [8] | [9] | [10]

CCOP(=O)(O)CC(OCn1cc(C)c(=O)[nH]c1=O)C(C)O (stereo not given)
320 µg/mL: [1] | [2] | [3] | [4] | [5] | [6] | [7] | [8] | [9] | [10]

Cc1cn(COC(CP(=O)(O)O)C(C)O)c(=O)[nH]c1=O (stereo not given)
320 µg/mL: [1] | [2] | [3] | [4] | [5] | [6] | [7] | [8] | [9] | [10]

CCOP(=O)(O)CC(OCn1ccc(=O)[nH]c1=O)C(C)O (stereo not given)
320 µg/mL: [1] | [2] | [3] | [4] | [5] | [6] | [7] | [8] | [9] | [10]

CC(O)C(CP(=O)(O)O)OCn1ccc(N)nc1=O (stereo not given)
320 µg/mL: [1] | [2] | [3] | [4] | [5] | [6] | [7] | [8] | [9] | [10]

CCOP(=O)(C[C@H](O)[C@H](COCc1ccccc1)OCc1ccccc1)OCC
320 µg/mL: [1] | [2] | [3] | [4] | [5] | [6] | [7] | [8] | [9] | [10]

Cc1cn(COC(CP(=O)(O)O)C(O)CO)c(=O)[nH]c1=O (stereo not given)
320 µg/mL: [1] | [2] | [3] | [4] | [5] | [6] | [7] | [8] | [9] | [10]

Cc1cn(COC2CP(=O)(Oc3ccccc3)OC2C)c(=O)[nH]c1=O (stereo not given)
320 µg/mL: [1] | [2] | [3] | [4] | [5] | [6] | [7] | [8] | [9] | [10]
